{
  "source": "PubChem BioAssay AID2060328",
  "about": "(Molecular Pharmacology Branch, DTP, NCI, 2025)",
  "tested_on": "MDA-MB-231 multicell spheroids, viability (%T/C)",
  "test": "Anticancer human tumor MDA-MB-231 cell line growth inhibition [IpAb];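 also: viability read after seven days of drug exposure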;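 as to viability, T/C: 100% = DMSO vehicle control viability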",
  "details": "for viability, T/C: stronger effect = lower value",
  "summary_of_the_method": "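Multi-cell spheroids of 60% tumour cells, 25% HUVEC and 15% MSC in ultra-low-attachment U-bottom wells, treated with agents combined with ipatasertib or abemaciclib. Half-log ranges top out near clinical Cmax, or 10 microM when Cmax is unknown.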",
  "key": {"[1]": {"details": "curve of first compound, second compound 0.01 µM"}, "[2]": {"details": "curve of first compound, second compound 0.0316 µM"}, "[3]": {"details": "curve of first compound, second compound 0.1 µM"}, "[4]": {"details": "curve of first compound, second compound 0.316 µM"}, "[5]": {"details": "curve of first compound, second compound 1 µM"}},
  "note": "pIC50: −log10 of the molar value. “And” between values parts separate entries of the source, which are not always exact repeats. Identical values can stand only once.",
  "data": [
    {"molecule": "Cn1ncc(Cl)c1-c1cc(C(=O)NC(CN)Cc2cccc(F)c2)sc1Cl", "note": "(configuration not stated) + CCN1CCN(Cc2ccc(Nc3ncc(F)c(-c4cc(F)c5nc(C)n(C(C)C)c5c4)n3)nc2)CC1", "values": [
      {"measurement": "pIC50", "setting": "[1]", "value": 6.06},
      {"measurement": "pIC50", "setting": "[2]", "value": 6.42},
      {"measurement": "pIC50", "setting": "[3]", "value": 7.12},
      {"measurement": "pIC50", "setting": "[4]", "value": "> 7.50"},
      {"measurement": "pIC50", "setting": "[5]", "value": "> 7.50"},
      {"measurement": "viability, T/C", "setting": "second compound 0.01 µM, first compound 0.0316 µM", "value": 87.3, "unit": "%"},
      {"measurement": "viability, T/C", "setting": "second compound 0.01 µM, first compound 0.1 µM", "value": 77.6, "unit": "%"},
      {"measurement": "viability, T/C", "setting": "second compound 0.01 µM, first compound 0.316 µM", "value": 66.7, "unit": "%"},
      {"measurement": "viability, T/C", "setting": "second compound 0.01 µM, first compound 1 µM", "value": 45.7, "unit": "%"},
      {"measurement": "viability, T/C", "setting": "second compound 0.01 µM, first compound 3.16 µM", "value": 27.5, "unit": "%"},
      {"measurement": "viability, T/C", "setting": "second compound 0.01 µM, first compound 10 µM", "value": 0.12, "unit": "%"},
      {"measurement": "viability, T/C", "setting": "second compound 0.0316 µM, first compound 0.0316 µM", "value": 73.4, "unit": "%"},
      {"measurement": "viability, T/C", "setting": "second compound 0.0316 µM, first compound 0.1 µM", "value": 64.8, "unit": "%"},
      {"measurement": "viability, T/C", "setting": "second compound 0.0316 µM, first compound 0.316 µM", "value": 51.9, "unit": "%"},
      {"measurement": "viability, T/C", "setting": "second compound 0.0316 µM, first compound 1 µM", "value": 36.4, "unit": "%"},
      {"measurement": "viability, T/C", "setting": "second compound 0.0316 µM, first compound 3.16 µM", "value": 23, "unit": "%"},
      {"measurement": "viability, T/C", "setting": "second compound 0.0316 µM, first compound 10 µM", "value": 0.11, "unit": "%"},
      {"measurement": "viability, T/C", "setting": "second compound 0.1 µM, first compound 0.0316 µM", "value": 52.6, "unit": "%"},
      {"measurement": "viability, T/C", "setting": "second compound 0.1 µM, first compound 0.1 µM", "value": 52, "unit": "%"},
      {"measurement": "viability, T/C", "setting": "second compound 0.1 µM, first compound 0.316 µM", "value": 40, "unit": "%"},
      {"measurement": "viability, T/C", "setting": "second compound 0.1 µM, first compound 1 µM", "value": 30.2, "unit": "%"},
      {"measurement": "viability, T/C", "setting": "second compound 0.1 µM, first compound 3.16 µM", "value": 20.4, "unit": "%"},
      {"measurement": "viability, T/C", "setting": "second compound 0.1 µM, first compound 10 µM", "value": 0.87, "unit": "%"},
      {"measurement": "viability, T/C", "setting": "second compound 0.316 µM, first compound 0.0316 µM", "value": 43.4, "unit": "%"},
      {"measurement": "viability, T/C", "setting": "second compound 0.316 µM, first compound 0.1 µM", "value": 42.7, "unit": "%"},
      {"measurement": "viability, T/C", "setting": "second compound 0.316 µM, first compound 0.316 µM", "value": 32.9, "unit": "%"},
      {"measurement": "viability, T/C", "setting": "second compound 0.316 µM, first compound 1 µM", "value": 30.5, "unit": "%"},
      {"measurement": "viability, T/C", "setting": "second compound 0.316 µM, first compound 3.16 µM", "value": 26, "unit": "%"},
      {"measurement": "viability, T/C", "setting": "second compound 0.316 µM, first compound 10 µM", "value": 0.53, "unit": "%"},
      {"measurement": "viability, T/C", "setting": "second compound 1 µM, first compound 0.0316 µM", "value": 44.2, "unit": "%"},
      {"measurement": "viability, T/C", "setting": "second compound 1 µM, first compound 0.1 µM", "value": 46.3, "unit": "%"},
      {"measurement": "viability, T/C", "setting": "second compound 1 µM, first compound 0.316 µM", "value": 43.2, "unit": "%"},
      {"measurement": "viability, T/C", "setting": "second compound 1 µM, first compound 1 µM", "value": 38.7, "unit": "%"},
      {"measurement": "viability, T/C", "setting": "second compound 1 µM, first compound 3.16 µM", "value": 43.6, "unit": "%"},
      {"measurement": "viability, T/C", "setting": "second compound 1 µM, first compound 10 µM", "value": 0.79, "unit": "%"}
    ]},
    {"molecule": "Cn1cnc2c(F)c(Nc3ccc(Br)cc3Cl)c(C(=O)NOCCO)cc21", "note": "+ CCN1CCN(Cc2ccc(Nc3ncc(F)c(-c4cc(F)c5nc(C)n(C(C)C)c5c4)n3)nc2)CC1", "values": [
      {"measurement": "pIC50", "setting": "[1]", "value": 7.47},
      {"measurement": "pIC50", "setting": "[2]", "value": "> 8.02"},
      {"measurement": "pIC50", "setting": "[3]", "value": "> 8.02"},
      {"measurement": "pIC50", "setting": "[4]", "value": "> 8.02"},
      {"measurement": "pIC50", "setting": "[5]", "value": "> 8.02"},
      {"measurement": "viability, T/C", "setting": "second compound 0.01 µM, first compound 0.00949 µM", "value": 54.5, "unit": "%"},
      {"measurement": "viability, T/C", "setting": "second compound 0.01 µM, first compound 0.03 µM", "value": 53.4, "unit": "%"},
      {"measurement": "viability, T/C", "setting": "second compound 0.01 µM, first compound 0.0949 µM", "value": 42.8, "unit": "%"},
      {"measurement": "viability, T/C", "setting": "second compound 0.01 µM, first compound 0.3 µM", "value": 36.9, "unit": "%"},
      {"measurement": "viability, T/C", "setting": "second compound 0.01 µM, first compound 0.949 µM", "value": 32.3, "unit": "%"},
      {"measurement": "viability, T/C", "setting": "second compound 0.01 µM, first compound 3 µM", "value": 20.4, "unit": "%"},
      {"measurement": "viability, T/C", "setting": "second compound 0.0316 µM, first compound 0.00949 µM", "value": 46.3, "unit": "%"},
      {"measurement": "viability, T/C", "setting": "second compound 0.0316 µM, first compound 0.03 µM", "value": 40.9, "unit": "%"},
      {"measurement": "viability, T/C", "setting": "second compound 0.0316 µM, first compound 0.0949 µM", "value": 35.9, "unit": "%"},
      {"measurement": "viability, T/C", "setting": "second compound 0.0316 µM, first compound 0.3 µM", "value": 30.9, "unit": "%"},
      {"measurement": "viability, T/C", "setting": "second compound 0.0316 µM, first compound 0.949 µM", "value": 25.5, "unit": "%"},
      {"measurement": "viability, T/C", "setting": "second compound 0.0316 µM, first compound 3 µM", "value": 13.3, "unit": "%"},
      {"measurement": "viability, T/C", "setting": "second compound 0.1 µM, first compound 0.00949 µM", "value": 36.9, "unit": "%"},
      {"measurement": "viability, T/C", "setting": "second compound 0.1 µM, first compound 0.03 µM", "value": 30.1, "unit": "%"},
      {"measurement": "viability, T/C", "setting": "second compound 0.1 µM, first compound 0.0949 µM", "value": 29.6, "unit": "%"},
      {"measurement": "viability, T/C", "setting": "second compound 0.1 µM, first compound 0.3 µM", "value": 25.4, "unit": "%"},
      {"measurement": "viability, T/C", "setting": "second compound 0.1 µM, first compound 0.949 µM", "value": 19.2, "unit": "%"},
      {"measurement": "viability, T/C", "setting": "second compound 0.1 µM, first compound 3 µM", "value": 12.2, "unit": "%"},
      {"measurement": "viability, T/C", "setting": "second compound 0.316 µM, first compound 0.00949 µM", "value": 28.2, "unit": "%"},
      {"measurement": "viability, T/C", "setting": "second compound 0.316 µM, first compound 0.03 µM", "value": 27, "unit": "%"},
      {"measurement": "viability, T/C", "setting": "second compound 0.316 µM, first compound 0.0949 µM", "value": 22, "unit": "%"},
      {"measurement": "viability, T/C", "setting": "second compound 0.316 µM, first compound 0.3 µM", "value": 19.2, "unit": "%"},
      {"measurement": "viability, T/C", "setting": "second compound 0.316 µM, first compound 0.949 µM", "value": 16.1, "unit": "%"},
      {"measurement": "viability, T/C", "setting": "second compound 0.316 µM, first compound 3 µM", "value": 9.49, "unit": "%"},
      {"measurement": "viability, T/C", "setting": "second compound 1 µM, first compound 0.00949 µM", "value": 28.7, "unit": "%"},
      {"measurement": "viability, T/C", "setting": "second compound 1 µM, first compound 0.03 µM", "value": 25.3, "unit": "%"},
      {"measurement": "viability, T/C", "setting": "second compound 1 µM, first compound 0.0949 µM", "value": 20.1, "unit": "%"},
      {"measurement": "viability, T/C", "setting": "second compound 1 µM, first compound 0.3 µM", "value": 17.4, "unit": "%"},
      {"measurement": "viability, T/C", "setting": "second compound 1 µM, first compound 0.949 µM", "value": 14.9, "unit": "%"},
      {"measurement": "viability, T/C", "setting": "second compound 1 µM, first compound 3 µM", "value": 10.7, "unit": "%"}
    ]},
    {"molecule": "Cn1cnc2c(F)c(Nc3ccc(Br)cc3Cl)c(C(=O)NOCCO)cc21", "values": [
      {"measurement": "viability, T/C", "setting": "compound 0.00949 µM", "value": "75.6% and 63.3%"},
      {"measurement": "viability, T/C", "setting": "compound 0.03 µM", "value": "59.9% and 54.4%"},
      {"measurement": "viability, T/C", "setting": "compound 0.0949 µM", "value": "54.8% and 50.4%"},
      {"measurement": "viability, T/C", "setting": "compound 0.3 µM", "value": "52.9% and 41.3%"},
      {"measurement": "viability, T/C", "setting": "compound 0.949 µM", "value": "27.7% and 30.4%"},
      {"measurement": "viability, T/C", "setting": "compound 3 µM", "value": "14.4% and 19.2%"},
      {"measurement": "pIC50", "setting": "curve of compound", "value": "6.73 and 7.14"}
    ]}
  ]
}
